Test [1] deals with T1, NUAK family SNF1-like kinase 2 (Homo sapiens) (UniProt Q9H093).
T1 sequence (whole entry): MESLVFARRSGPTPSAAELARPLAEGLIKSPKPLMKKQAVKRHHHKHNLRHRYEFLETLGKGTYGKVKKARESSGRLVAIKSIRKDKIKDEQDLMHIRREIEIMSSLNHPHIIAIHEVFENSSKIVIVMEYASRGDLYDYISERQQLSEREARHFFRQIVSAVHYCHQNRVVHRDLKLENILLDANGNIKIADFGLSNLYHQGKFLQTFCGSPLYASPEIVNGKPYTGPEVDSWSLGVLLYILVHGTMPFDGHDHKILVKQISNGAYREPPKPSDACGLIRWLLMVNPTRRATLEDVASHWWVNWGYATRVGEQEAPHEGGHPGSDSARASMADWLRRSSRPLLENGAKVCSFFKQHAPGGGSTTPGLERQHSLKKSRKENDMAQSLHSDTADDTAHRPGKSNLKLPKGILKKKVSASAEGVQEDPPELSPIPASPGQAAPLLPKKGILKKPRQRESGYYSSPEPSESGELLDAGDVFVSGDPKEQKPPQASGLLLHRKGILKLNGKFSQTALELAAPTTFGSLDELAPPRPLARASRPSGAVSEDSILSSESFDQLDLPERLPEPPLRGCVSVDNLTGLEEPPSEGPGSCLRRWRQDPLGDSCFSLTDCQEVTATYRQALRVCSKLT
The note with it: at 10 µM.

In test [2] the target is Serine/threonine-protein kinase 26 (Homo sapiens, UniProt Q9P289). The test is described as follows: Selectivity interaction (Kinase panel (DSF assay)) EUB0001558a STK26. (Differential scanning fluorimetry follows unfolding on heating by fluorescence.)
Test [3] has as its target Tyrosine-protein kinase FRK (Homo sapiens) (UniProt P42685). The test is described as follows: Selectivity interaction (KinomeScan (DiscoverX)) EUB0000695a FRK. Particulars: at 100 nM.
Test [4] addresses Cyclin-dependent kinase 5/CDK5 activator 1 (Homo sapiens) (UniProt Q00535+Q15078). The test is described as follows: Selectivity interaction (SelectScreen profiling (Invitrogen)) EUB0000607a CDK5. It is filed as protein-complex assay. Particulars: at 2 µM.
Test [5] concerns the target T2, Cyclin-dependent kinase 11A (Homo sapiens) (UniProt Q9UQ88).
T2 sequence (whole entry): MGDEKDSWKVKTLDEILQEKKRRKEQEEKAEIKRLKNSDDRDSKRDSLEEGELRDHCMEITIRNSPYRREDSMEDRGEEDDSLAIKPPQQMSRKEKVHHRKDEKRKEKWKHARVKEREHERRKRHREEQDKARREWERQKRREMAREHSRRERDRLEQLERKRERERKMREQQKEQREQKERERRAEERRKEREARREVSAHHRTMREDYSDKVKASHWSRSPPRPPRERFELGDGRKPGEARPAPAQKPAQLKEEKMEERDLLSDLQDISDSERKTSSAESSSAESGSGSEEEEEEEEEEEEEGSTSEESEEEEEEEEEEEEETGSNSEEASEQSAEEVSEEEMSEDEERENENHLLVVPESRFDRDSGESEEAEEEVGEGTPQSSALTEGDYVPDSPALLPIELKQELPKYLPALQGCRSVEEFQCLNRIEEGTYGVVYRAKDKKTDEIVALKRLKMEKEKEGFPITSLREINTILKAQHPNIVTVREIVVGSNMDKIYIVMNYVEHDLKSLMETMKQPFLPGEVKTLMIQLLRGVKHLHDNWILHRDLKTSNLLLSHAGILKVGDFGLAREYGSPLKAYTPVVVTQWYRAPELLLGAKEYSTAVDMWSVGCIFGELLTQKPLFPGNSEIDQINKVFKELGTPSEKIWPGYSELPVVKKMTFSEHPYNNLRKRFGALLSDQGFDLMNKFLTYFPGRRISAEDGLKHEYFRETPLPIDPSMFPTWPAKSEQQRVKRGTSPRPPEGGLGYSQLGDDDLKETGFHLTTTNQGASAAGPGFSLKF
The test is described as follows: Selectivity interaction (ActivX KiNativ screen (ex vivo kinase selectivity in human PBMCs)) EUB0001619a CDK11A. Format: cell-based. Particulars: PBMC, at 1 µM.

Test [6] relates to T3, Receptor-type tyrosine-protein kinase FLT3 (Homo sapiens), P36888 [D835Y].
T3 sequence (whole entry): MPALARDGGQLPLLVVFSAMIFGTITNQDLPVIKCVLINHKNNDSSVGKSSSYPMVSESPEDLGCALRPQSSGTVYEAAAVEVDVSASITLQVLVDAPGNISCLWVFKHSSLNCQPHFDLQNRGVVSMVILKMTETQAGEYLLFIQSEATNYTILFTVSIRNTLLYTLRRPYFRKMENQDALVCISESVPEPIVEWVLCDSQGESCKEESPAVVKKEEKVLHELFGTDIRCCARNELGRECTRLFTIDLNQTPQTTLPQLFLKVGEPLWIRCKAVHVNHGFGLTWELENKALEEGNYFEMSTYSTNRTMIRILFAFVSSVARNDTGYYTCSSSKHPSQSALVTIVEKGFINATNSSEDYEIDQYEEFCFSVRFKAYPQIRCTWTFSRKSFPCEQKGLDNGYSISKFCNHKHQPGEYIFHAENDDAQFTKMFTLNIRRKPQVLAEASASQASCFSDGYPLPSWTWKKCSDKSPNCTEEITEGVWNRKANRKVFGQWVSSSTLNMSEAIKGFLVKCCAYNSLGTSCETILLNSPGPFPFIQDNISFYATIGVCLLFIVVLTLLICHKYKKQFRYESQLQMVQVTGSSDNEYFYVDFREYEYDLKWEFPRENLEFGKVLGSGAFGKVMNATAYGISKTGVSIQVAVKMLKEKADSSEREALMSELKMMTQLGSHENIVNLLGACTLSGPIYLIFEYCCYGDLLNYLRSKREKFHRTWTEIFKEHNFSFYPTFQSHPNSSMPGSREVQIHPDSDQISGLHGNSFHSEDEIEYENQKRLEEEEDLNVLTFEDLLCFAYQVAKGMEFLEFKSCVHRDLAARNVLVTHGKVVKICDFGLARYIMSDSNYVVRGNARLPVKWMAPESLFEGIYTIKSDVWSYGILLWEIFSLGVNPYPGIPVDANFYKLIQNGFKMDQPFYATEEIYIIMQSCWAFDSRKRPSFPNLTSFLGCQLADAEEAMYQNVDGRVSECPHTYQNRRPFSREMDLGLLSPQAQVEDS
The test is described as follows: Selectivity interaction (KinomeScan (DiscoverX)) EUB0001619a FLT3. The note with it: at 1 µM.

Sequence of Cyclin-dependent kinase 5/CDK5 activator 1 (Homo sapiens) (Q00535 whole entry): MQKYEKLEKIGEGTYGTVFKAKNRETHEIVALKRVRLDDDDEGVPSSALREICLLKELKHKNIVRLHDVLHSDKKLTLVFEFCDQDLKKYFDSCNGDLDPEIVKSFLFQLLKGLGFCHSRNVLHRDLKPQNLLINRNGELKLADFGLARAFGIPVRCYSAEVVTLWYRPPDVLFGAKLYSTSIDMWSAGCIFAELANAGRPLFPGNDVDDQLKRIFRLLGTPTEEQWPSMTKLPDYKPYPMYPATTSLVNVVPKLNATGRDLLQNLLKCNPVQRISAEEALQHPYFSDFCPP
Sequence of Cyclin-dependent kinase 5/CDK5 activator 1 (Homo sapiens) (Q15078 99-307 partner limits assumed): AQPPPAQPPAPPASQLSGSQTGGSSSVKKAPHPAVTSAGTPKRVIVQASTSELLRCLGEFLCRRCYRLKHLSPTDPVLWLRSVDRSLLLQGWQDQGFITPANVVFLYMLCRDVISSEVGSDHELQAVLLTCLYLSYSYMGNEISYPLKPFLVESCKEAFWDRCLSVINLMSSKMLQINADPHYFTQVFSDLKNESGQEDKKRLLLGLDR
Sequence of Serine/threonine-protein kinase 26 (Q9P289 2-416 limits assumed): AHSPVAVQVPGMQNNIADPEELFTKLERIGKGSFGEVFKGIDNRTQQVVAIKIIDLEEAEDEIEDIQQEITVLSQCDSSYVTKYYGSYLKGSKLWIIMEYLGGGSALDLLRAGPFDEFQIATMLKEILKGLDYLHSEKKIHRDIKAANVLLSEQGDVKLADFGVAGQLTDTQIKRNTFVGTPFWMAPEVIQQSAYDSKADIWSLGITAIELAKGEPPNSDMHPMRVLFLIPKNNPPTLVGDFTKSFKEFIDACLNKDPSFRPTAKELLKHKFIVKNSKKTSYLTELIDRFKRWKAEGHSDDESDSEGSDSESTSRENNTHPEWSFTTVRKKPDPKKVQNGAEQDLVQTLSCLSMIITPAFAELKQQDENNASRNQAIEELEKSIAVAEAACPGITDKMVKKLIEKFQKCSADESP
Sequence of Tyrosine-protein kinase FRK (Homo sapiens) (P42685 whole entry): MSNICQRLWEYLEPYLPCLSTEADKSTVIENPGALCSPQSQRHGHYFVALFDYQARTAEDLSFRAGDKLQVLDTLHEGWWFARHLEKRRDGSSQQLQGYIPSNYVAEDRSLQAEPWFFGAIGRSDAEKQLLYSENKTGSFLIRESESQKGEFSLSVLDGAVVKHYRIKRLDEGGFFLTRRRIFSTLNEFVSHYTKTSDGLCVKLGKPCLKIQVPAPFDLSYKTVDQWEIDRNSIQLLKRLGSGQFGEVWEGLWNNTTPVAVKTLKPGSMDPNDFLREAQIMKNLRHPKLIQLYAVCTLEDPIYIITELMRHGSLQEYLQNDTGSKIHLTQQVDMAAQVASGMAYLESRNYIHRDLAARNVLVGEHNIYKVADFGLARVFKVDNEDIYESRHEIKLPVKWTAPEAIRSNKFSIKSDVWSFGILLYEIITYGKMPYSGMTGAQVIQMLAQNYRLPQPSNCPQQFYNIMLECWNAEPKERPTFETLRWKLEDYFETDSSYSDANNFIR

With `Cc1cc([C@@H](C)Nc2ccccc2C(=O)O)c2nc(N3CCOCC3)cc(=O)n2c1` [AZD-6482], the % of control in test [1] came out at 84%.

In the case of `CC(C)(O)[C@H](F)CN1Cc2cc(NC(=O)c3cnn4cccnc34)c(N3CCOCC3)cc2C1=O`, the dTM in test [2] stood at 0.4 K.

In test [3], `Cc1cc(F)c(C(=O)Nc2cccc(-c3nncn3C(C)C)n2)cc1-n1cnc(C2CC2)c1` had a % of control of 100%.

As for `CNC(=O)Nc1ccc(-c2nc(N3CC4CCC(C3)O4)c3cnn(C4CCC5(CC4)OCCO5)c3n2)cc1`, the % of inhibition in test [4] was determined as 1%.

In test [5], `N#Cc1cccc(-c2c[nH]c3ncnc(N4CCOCC4)c23)c1` registered a % of inhibition of 11%. In test [6], this molecule had a % of control of 65%.

Values taken from ChEMBL document CHEMBL5465560, “Selectivity Literature for EUbOPEN Chemogenomic Library” (2024).
